In paper PMC4331048 (Molecular and cellular biochemistry, 2011):

Molecular target: CK2α (Homo sapiens, UniProt P68400)
Test: In vitro kinase assay, [γ-32P]ATP phosphorylation of purified CSQ2 by pure CK2α

Sequence of CK2α (P68400 whole entry): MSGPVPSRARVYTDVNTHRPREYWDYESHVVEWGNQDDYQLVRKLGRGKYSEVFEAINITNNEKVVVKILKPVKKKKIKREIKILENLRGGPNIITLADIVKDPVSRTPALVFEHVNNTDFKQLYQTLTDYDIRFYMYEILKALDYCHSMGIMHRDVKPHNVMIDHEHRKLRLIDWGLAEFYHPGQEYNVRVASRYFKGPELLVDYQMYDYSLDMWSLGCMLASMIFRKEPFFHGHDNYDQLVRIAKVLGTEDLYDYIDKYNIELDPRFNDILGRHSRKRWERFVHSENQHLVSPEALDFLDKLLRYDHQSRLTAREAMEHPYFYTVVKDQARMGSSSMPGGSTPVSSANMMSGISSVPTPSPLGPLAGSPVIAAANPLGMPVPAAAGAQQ

Q: With `O=C(O)/C=C/c1cc(Br)c(Br)c(Br)c1Br` [TBCA] as the molecule, how does the IC50 read?
A: ~10 µM
